Assay results from paper PMC4349624, “In vitro synergistic effect of fluoroquinolone analogues in combination with artemisinin against Plasmodium falciparum; their antiplasmodial action in rodent malaria model” (Malaria Journal, 2015).
Values after ≈ are worked out from the molar mass of the structure shown. Values joined by “and” are separate entries in the source; they are usually repeats but may differ in a detail not shown here. Equal values may be shown once. “Also recorded” adds a separate entry of the source.

Key:
host cell = tested on: host cell; parameters: method as in PMID 22424611; details: read-out: in vitro host cell cytotoxicity IC50; cited from earlier work
[1] = tested on: Plasmodium falciparum 3D7 strain; assay: antiplasmodial interaction assay, fixed-ratio combination isobologram method with artemisinin; type: cell-based; details: for antiplasmodial interaction with artemisinin (in words): four fixed-ratio combinations, in vitro; for Drug B Mean FIC50 ± SE: n = 3
Protocol: Stock culture of malaria parasite P. falciparum 3D7 strain (chloroquine sensitive) was continuously maintained in vitro using a CO2 incubator under low-oxygen concentration (3%) and high carbon dioxide atmosphere (4%) along with nitrogen (93%), incubated at a temperature of 37°C. The parasites were maintained on O^+ human red blood cells suspended in a complete culture medium. Each litre of RPMI-1640 aqueous culture medium was prepared with 10.4 g of powdered RPMI-1640 (with glutamine but without sodium bicarbonate), 5.94 g of HEPES buffer, 1 g of dextrose and 40 mg of gentamicin. Complete medium was constituted just before use by adding sterile 5% sodium bicarbonate at the rate of 4 ml per 96 ml, and supplemented with 10% (v/v) pooled O^+ human serum. Infected erythrocytes were suspended in this culture media initiated at a haematocrit value of 5% and parasitemia was kept between 2 and 4% with sub-culturing done beyond 5%. Medium was changed once a day and percentage parasitemia was monitored using Giemsa stained slides.
Artemisinin (Sigma Aldrich, USA) was prepared in DMSO to get the stock solution of 1 mg/ml strength. Compounds 10, 12 and 18 were synthesized according to the procedure described by Dixit et al. and each compound was made to strength of 1 mg/ml stock solution in DMSO. The stock solutions were diluted on the day of experiment to get the desired concentrations for each compound. The highest amount of DMSO in diluted concentrations was 0.125%, and had no effect on parasite growth.
In each combination assay, two compounds (Compound A, artemisinin and Compound B, a fluoroquinolone derivative or norfloxacin) were combined in four fixed ratios (4:1, 3:2, 2:3, and 1:4).
Compound dilutions of each combination solution were made in sterile, flat-bottomed, 96-well tissue culture plates as described by Fivelman et al.. Six times two-fold serial dilution was done for each combination in triplicate. Each well contained a total volume of 200 μl of complete culture medium with or without compound and pre-synchronized infected red blood cells (1% parasitemia at 2.5% haematocrit). Control cultures (without compound) were maintained on the same plate in triplicate. Two 96-well plates (for six combinations) were used for each combination experiment. The plates were stacked in a CO2 incubator and incubated at 37°C for 48 hours.
After 48-hour incubation, thin blood smear slides were prepared, air dried, methanol fixed, and stained in Giemsa solution for 40 min. After staining, slides were removed from coupling jar, washed in running tap water and air dried. The Giemsa-stained slides were examined for counting the number of parasites in random adjacent microscopic fields, equivalent to about 4,000 erythrocytes at 1,000 × magnification. Per cent parasitemia was calculated. Reproducibility of counts was checked by two other readers to maintain the quality control.
For each combination assay, IC50 was calculated from two sets of concentration response graphs, each containing compound alone curve and four combination curves.
ƩFIC <1 represents synergism, ƩFIC > = 1 and <2 represents additive interaction, ƩFIC > = 2 and <4 represents slight antagonism while ƩFIC > = 4 represents marked antagonism.

BALB/c mice = assay: LD50 test; type: in vivo; details: ip
Protocol: Therapeutic Index (TI) values were determined by the formula: TherapeuticIndexTI=MedianlethaldoseLD50/MedianeffectivedoseED50

[2] = tested on: 3D7 strain of P. falciparum; details: P. falciparum 3D7, in vitro, cited from earlier work; for IC50: read-out: IC50 (equivalent in μM)
Plasmodium berghei ANKA = assay: Peters' four-day suppressive test in BALB/c mice; type: in vivo; details: ip, once daily days 0 to 3, BALB/c mice; n = 5
From the text: Evaluation of the curative potential of the fluoroquinolone derivatives was done using the method described by Ryley and Peters, 1970 (rodent malaria four-day suppressive test; Peters’ four-day suppressive test). Rodent malaria parasite Plasmodium berghei ANKA was used.
[…] BALB/c inbred albino mice (25–30 g) of the male sex were obtained from the Animal Facility Centre of the Department of Zoology, University of Delhi. The animals were fed ad libitum with standard feed and had free access to water. They were maintained under standard conditions of humidity, temperature (25°C) and 12 hours light/darkness cycles. The animals were acclimatized for two weeks before the commencement of the study and were ensured to exclude all zoonotic agents.
Day 0: Heparinized blood was withdrawn from an infected donor mouse with approximately 25-30% parasitemia, and diluted in 1x PBS to 10^8 parasitized erythrocytes per mL. An aliquot of 0.2 mL (=2 × 10^7 parasitized erythrocytes) of this suspension was injected intraperitoneally (ip) into experimental groups of five mice each. One to three hours post-infection, the experimental groups were treated with varying doses of each of the test compounds (0.5, 1, 10, 25 mg/kg BW) by the ip route. Each compound was made to strength of 5 mg/ml stock solution in 10% DMSO and administered according to desired concentration and individual body weight. Artemisinin was given to the standard drug group and 0.2 mL of normal saline to the negative control group.
Day 1, 2 and 3: 24 hours, 48 hours and 72 hours post-infection, the experimental groups of mice were treated again with the same dose and by the same route as on day 0.
Day 4: 24 hours after the last treatment (i.e., 96 hours post-infection), blood was drawn from the tail region of mice and smears were prepared. […] Differences in parasitemia percentage between treated groups and untreated animals were analysed by a one-way ANOVA test using IBM SPSS Statistics 16.0 and differences considered significant if P < 0.05. […] Percentinhibitionactivity=100–Meanparasitemia/control×100
Untreated control mice typically died approximately one week after infection. […] The mean survival time was calculated in comparison to untreated (Normal saline) and standard drug (artemisinin) treated groups. Differences in survival time between treated groups and untreated animals were analysed by Log-rank (Mantel-Cox) test using GraphPad Prism 5 and differences considered significant if P <0.005. Observations concerning adverse effects due to the compounds were recorded.

[3] = artemisinin (A) : drug B ratio 1:4
[4] = artemisinin (A) : drug B ratio 2:3
[5] = artemisinin (A) : drug B ratio 3:2
[6] = artemisinin (A) : drug B ratio 4:1
[7] = ratio A:B 1:4, combined with artemisinin (drug A)
[8] = ratio A:B 2:3, combined with artemisinin (drug A)
[9] = ratio A:B 3:2, combined with artemisinin (drug A)
[10] = ratio A:B 4:1, combined with artemisinin (drug A)

| Compound | IC50 (host cell) | interaction (class from Σ FICs) [1, 3] | Σ FICs [1, 3] | interaction (class from Σ FICs) [1, 4] | Σ FICs [1, 4] | interaction (class from Σ FICs) [1, 5] | Σ FICs [1, 5] | interaction (class from Σ FICs) [1, 6] | Σ FICs [1, 6] | antiplasmodial interaction with artemisinin (in words) [1] | Drug B Mean FIC50 ± SE ([1]; ratio A:B 0:5, drug B alone) | Drug B Mean FIC50 ± SE [1, 7] | Drug B Mean FIC50 ± SE [1, 8] | Drug B Mean FIC50 ± SE [1, 9] | Drug B Mean FIC50 ± SE [1, 10] | Therapeutic Index (TI) = LD50/ED50 (BALB/c mice) | IC50 (inhibited the parasite multiplication rate to 50%) ± SE [2] | IC50 [2] | Mean ED50 ± SE (Plasmodium berghei ANKA) | further results |
| --- | --- | --- | --- | --- | --- | --- | --- | --- | --- | --- | --- | --- | --- | --- | --- | --- | --- | --- | --- | --- |
| CCOC(=O)c1cn(CC#N)c2cc(Cl)c(F)cc2c1=O [Compound 10] | 143 µM | SYN (ƩFIC <1 represents synergism) | 0.58 | ADD (ƩFIC > = 1 and <2 represents additive interaction) | 1.01 | SYN (ƩFIC <1 represents synergism) | 0.80 | SYN (ƩFIC <1 represents synergism) | 0.76 | highly synergistic interactions; also recorded: synergistic antiplasmodial interaction in three of the four fixed-ratio combinations evaluated and additive in the remaining one | 0.93 ± 0.04 | 0.41 ± 0.03 | 0.53 ± 0.03 | 0.22 ± 0.02 | 0.15 ± 0.02 | 346.32 | 2.56 ± 0.30 mg/L (≈ 8.29 µM) | 8.69 µM | 2.31 mg/kg BW and 2.31 ± 0.19 mg/kg BW | Mean ƩFIC ± SD ([1]; combination with artemisinin, over the fixed-ratio combinations): 0.788 ± 0.177 |
| CCOC(=O)c1cn(Cc2c[nH]nn2)c2cc(Cl)c(F)cc2c1=O [Compound 12] | 171 µM | SYN (ƩFIC <1 represents synergism) | 0.56 | ADD (ƩFIC > = 1 and <2 represents additive interaction) | 1.27 | SYN (ƩFIC <1 represents synergism) | 0.83 | SYN (ƩFIC <1 represents synergism) | 0.78 | highly synergistic interactions | 1.11 ± 0.08 | 0.32 ± 0.01 | 0.77 ± 0.03 | 0.23 ± 0.02 | 0.15 ± 0.003 | 258.90 | 1.33 ± 0.67 mg/L (≈ 3.79 µM) | 3.79 µM | 3.09 mg/kg BW and 3.09 ± 0.22 mg/kg BW | antiplasmodial interaction with artemisinin (in words) ([1]; listed as compound 12): synergistic interaction in three combinations and additive in one |
| CCOC(=O)c1cn(Cc2cccc(Cl)c2)c2cc(Cl)c(F)cc2c1=O [Compound 18] | 129 µM | SYN (ƩFIC <1 represents synergism) | 0.55 | ADD (ƩFIC > = 1 and <2 represents additive interaction) | 1.15 | ADD (ƩFIC > = 1 and <2 represents additive interaction) | 1.02 | SYN (ƩFIC <1 represents synergism) | 0.73 | synergistic in two combinations, while additive in the other two | 0.97 ± 0.08 | 0.33 ± 0.02 | 0.66 ± 0.03 | 0.47 ± 0.03 | 0.16 ± 0.01 | 307.69 | 2.73 ± 0.23 mg/L (≈ 6.92 µM) | 6.93 µM | 2.60 mg/kg BW and 2.60 ± 0.18 mg/kg BW | – |
